“And” between values parts separate entries of the source, which are not always exact repeats. Equal entries are not always repeated.
Test system: A53T a-syn or EV rats
Assay: Cylinder test, forelimb asymmetry
Type: in vivo, rat
Parameters: Forelimb asymmetry in cylinder test: scale not given here
Settings: for Forelimb asymmetry in cylinder test: individual rats
Method: Animals were secured in a stereotactic frame under isoflurane/oxygen anesthesia and ketoprofen (5 mg/kg) analgesia. The surgical site was shaved and sterilized with iodine/betadine prior to making a 2 cm incision along the midline. The scalp was exposed and a unilateral injection targeting the SN was performed at coordinates AP −5.2 mm, ML −2 mm and DV −7.5 mm with respect to the bregma as a point of reference. For each animal, a total volume of 2 μl of virus was injected at a rate of 0.5 μl/min using a microinjection pump and 10 μl Hamilton syringe with a 26-gauge needle. For A53T groups, 1 μl (low dose) or 1.34 μl (high dose) of AAV1/2-A53T a-syn (5.1 × 10^12 genomic particles/ml), 0.14 μl of AAV1/2-PDpep1.3-GFP or Scramble1.3-GFP (5.1 × 10^12 genomic particles/ml) and 0.86 μl or 0.52 μl of sterile PBS was injected; for EV groups, 1 μl (low dose) or 1.34 μl (high dose) of AAV1/2-EV (5.1 × 10^12 genomic particles/ml) replaced AAV1/2-A53T. For V1S/SV2 groups, 0.58 μl of AAV1/2-V1S (1.1 × 10^12 genomic particles/ml), 0.58 μl of AAV1/2-SV2 (1.1 × 10^12 genomic particles/ml), 0.14 μl of AAV1/2-PDpep1.3-RFP or Scramble1.3-RFP (5.1 × 10^12 genomic particles/ml) and 0.7 μl of sterile PBS was injected; for the YFP groups, 1.16 μl of AAV1/2-YFP (1.1 × 10^12 genomic particles/ml), 0.14 μl of AAV1/2-PDpep1.3-RFP or Scramble1.3-RFP (5.1 × 10^12 genomic particles/ml) and 0.7 μl of sterile PBS was injected. At the end of virus injection, the needle remained in place for 5 min before gradual removal.
Spontaneous forepaw use was evaluated using the cylinder test 1 day prior to stereotactic AAV injection, at 21 days post-injection, and at 41 days post-injection. Following overnight food restriction, individual rats with right paws marked black were placed into a glass cylinder in front of two mirrors and videos recorded. An observer blinded to treatment conditions later scored the videos by recording whether animals used their left forepaw, right forepaw, or both forepaws to touch the inner glass surface upon rearing. A total of 5 min of video recording was scored and a minimum of 10 total touches was required for data inclusion.

DEEIERQLKALG [PDpep1.3]
Forelimb asymmetry in cylinder test (A53T, 3 WPI): -28.57 and 24.32 and 52.38 and 33.3333 and 9.524 and -2.857
Forelimb asymmetry in cylinder test (A53T, 6 WPI): -12.5 (2×) and 25.93 and 21.43 and 6.98
Forelimb asymmetry (A53T, 6 weeks): comparable to controls
Forelimb asymmetry in cylinder test (A53T, baseline (prior to injection)): -7.41 and 24.14 and 18.18 and 22.22 and -2.4 and -27.78 and 19.4
Forelimb asymmetry in cylinder test (EV, 3 WPI): 3.448 and -28.5714 and 80.9524 and -6.849 and 10.3448 and -26.6667 and 19.4444
Forelimb asymmetry in cylinder test (EV, 6 WPI): 20 and -14.29 and 37.5 and -3.23 and 75 and -33.33 and 3.03
Forelimb asymmetry in cylinder test (EV, baseline (prior to injection)): 21.95 and -4 and 13.16 and -24.75 and 1.82 and 24.14 and 9.8

Reference: article PMC10115881, “Disrupting the α-synuclein-ESCRT interaction with a peptide inhibitor mitigates neurodegeneration in preclinical models of Parkinson’s disease” (Nature Communications, 2023)
